Experimental findings from ChEMBL document CHEMBL1201862, “PubChem BioAssay data set” (2004) are described below.

A short description of data set [1]: intracellular Trypanosoma cruzi inhibitors in host cells – cell-based, plate reader, cherry-pick samples, set 3, dose response (AID 651818).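 Also: compounds incubated with infected cells for about four days.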 Format: functional.
Data set [2] has as its target Cytochrome P450 2C19 (Homo sapiens, UniProt P33261). Kind of data set: Cytochrome panel assay with activity outcomes. Panel member name: p450-cyp2c19 Compounds with AC50 equal or less than 10 uM are considered active. Format: functional.
In data set [3] the target is Cytochrome P450 2C9 (Homo sapiens, UniProt P11712).
The subject of data set [4] is INS1. Kind of data set: beta cell apoptosis inhibitors, cytokine rescue, dose response, luminescence, retest (AID 449756).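 Also: cell death triggered by IL-1 beta plus TNF-alpha plus IFN-gamma mixture; protective hits raise ATP signal compared with cytokine alone wells.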 As to conditions: Rattus norvegicus. Format: functional, cell-based.
Data set [5] in a line: cytotoxicity in HEK-293T cells, dose response, cytotoxicity control for BCR NF-kB inhibitor project, luminescence, B-cell screen hits (AID 489021).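 Also: HEK-293T cells carrying an NF-kB luciferase reporter; cells exposed to compound for about 14 hours before viability readout.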 Format: functional, cell-based.
For data set [6], the target named is G-protein coupled receptor 55 (Homo sapiens, UniProt Q9Y2T6). Put plainly: GPR55 agonists via beta-arrestin recruitment, primary screen, imaging, U2OS cells, beta-arrestin-GFP redistribution (AID 1961). Format: functional. In general terms: Arrestin recruitment assays detect the binding of arrestin to an activated receptor.
Data set [7] addresses T1, Calpain-2 catalytic subunit (Sus scrofa, UniProt P43367).
T1 sequence (P43367 whole entry): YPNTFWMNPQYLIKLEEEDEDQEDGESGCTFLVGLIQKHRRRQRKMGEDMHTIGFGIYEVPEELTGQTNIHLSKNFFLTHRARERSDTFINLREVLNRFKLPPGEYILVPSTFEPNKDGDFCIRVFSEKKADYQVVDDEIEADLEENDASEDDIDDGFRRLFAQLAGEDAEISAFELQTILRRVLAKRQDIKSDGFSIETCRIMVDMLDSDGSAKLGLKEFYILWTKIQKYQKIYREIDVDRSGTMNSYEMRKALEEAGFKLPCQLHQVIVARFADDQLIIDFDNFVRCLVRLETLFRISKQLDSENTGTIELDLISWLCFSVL
Put plainly: pig calpain II inhibitor potency, dose response, biochemical, fluorogenic peptide substrate (AID 1420). Format: functional.

Data set [8] concerns the target T2, Cytochrome P450 1A2 (Homo sapiens, UniProt P05177).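 Also: PubChem cytochrome P450 panel assay, CYP1A2 panel member.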
T2 sequence (P05177 whole entry): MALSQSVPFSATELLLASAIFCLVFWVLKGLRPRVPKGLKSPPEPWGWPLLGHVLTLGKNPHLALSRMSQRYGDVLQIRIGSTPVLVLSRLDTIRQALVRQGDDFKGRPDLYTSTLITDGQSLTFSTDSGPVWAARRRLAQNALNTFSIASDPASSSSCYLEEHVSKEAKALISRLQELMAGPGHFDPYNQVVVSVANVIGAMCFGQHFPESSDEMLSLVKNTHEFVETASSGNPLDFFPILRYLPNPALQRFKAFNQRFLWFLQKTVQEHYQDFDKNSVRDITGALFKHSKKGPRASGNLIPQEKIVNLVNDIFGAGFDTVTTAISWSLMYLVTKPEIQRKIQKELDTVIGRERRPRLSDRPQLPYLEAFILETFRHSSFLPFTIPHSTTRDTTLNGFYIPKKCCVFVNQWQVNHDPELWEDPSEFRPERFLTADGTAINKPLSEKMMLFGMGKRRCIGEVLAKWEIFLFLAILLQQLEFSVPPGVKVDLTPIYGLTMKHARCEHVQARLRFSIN

Data set [9] has as its target T3, Histone-lysine N-methyltransferase NSD2 (Homo sapiens, UniProt O96028).
T3 sequence (O96028 whole entry): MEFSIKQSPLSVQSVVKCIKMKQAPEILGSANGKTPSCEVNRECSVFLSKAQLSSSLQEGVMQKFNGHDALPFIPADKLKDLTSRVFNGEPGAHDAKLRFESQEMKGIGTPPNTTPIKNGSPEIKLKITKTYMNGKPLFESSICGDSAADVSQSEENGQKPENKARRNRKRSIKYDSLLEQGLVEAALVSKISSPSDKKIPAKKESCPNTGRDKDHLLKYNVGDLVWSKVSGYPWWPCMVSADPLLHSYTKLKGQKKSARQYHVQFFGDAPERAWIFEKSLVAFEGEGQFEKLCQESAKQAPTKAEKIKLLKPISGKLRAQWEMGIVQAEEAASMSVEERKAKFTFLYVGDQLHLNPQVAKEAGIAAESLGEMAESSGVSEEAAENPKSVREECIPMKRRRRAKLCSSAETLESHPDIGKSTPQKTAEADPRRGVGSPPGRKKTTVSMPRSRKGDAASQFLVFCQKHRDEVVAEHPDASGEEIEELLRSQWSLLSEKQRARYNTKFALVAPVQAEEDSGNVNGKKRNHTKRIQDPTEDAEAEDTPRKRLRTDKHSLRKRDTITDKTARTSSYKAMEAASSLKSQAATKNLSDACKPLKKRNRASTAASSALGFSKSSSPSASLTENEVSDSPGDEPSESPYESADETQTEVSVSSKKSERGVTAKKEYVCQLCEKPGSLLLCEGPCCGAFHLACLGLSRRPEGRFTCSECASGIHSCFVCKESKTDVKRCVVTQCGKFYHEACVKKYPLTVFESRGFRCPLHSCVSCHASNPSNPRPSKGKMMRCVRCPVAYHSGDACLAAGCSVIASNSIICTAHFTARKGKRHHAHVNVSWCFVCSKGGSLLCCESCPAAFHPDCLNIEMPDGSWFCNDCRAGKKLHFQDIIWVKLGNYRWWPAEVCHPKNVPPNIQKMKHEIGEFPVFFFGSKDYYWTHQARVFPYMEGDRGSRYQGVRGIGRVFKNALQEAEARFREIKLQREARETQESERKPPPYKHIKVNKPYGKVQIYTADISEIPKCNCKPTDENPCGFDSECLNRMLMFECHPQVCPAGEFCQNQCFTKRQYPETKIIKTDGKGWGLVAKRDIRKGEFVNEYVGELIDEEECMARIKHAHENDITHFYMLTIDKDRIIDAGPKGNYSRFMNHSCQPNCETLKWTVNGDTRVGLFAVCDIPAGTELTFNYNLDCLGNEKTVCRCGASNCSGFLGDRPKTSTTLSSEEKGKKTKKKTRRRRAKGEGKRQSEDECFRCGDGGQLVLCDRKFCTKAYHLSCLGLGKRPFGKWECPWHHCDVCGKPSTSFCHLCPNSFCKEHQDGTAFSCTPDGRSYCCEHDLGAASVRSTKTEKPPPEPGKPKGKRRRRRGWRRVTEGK
Format: biochemical.

In data set [10] the target is T4, Corticotropin-releasing factor receptor 2/Corticotropin-releasing factor-binding protein (Homo sapiens, UniProt P24387+Q13324).
T4 sequence (Q13324 whole entry): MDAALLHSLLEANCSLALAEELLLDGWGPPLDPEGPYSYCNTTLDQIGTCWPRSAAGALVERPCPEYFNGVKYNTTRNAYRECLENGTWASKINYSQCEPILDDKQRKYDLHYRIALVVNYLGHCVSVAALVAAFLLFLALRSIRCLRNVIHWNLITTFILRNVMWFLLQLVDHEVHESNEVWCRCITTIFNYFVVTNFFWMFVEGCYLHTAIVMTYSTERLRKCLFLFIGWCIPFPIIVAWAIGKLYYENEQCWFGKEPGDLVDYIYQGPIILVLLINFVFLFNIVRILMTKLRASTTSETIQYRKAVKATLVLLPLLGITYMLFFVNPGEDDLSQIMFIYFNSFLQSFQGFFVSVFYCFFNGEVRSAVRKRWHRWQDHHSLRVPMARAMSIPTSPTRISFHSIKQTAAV
T4 sequence (P24387 whole entry): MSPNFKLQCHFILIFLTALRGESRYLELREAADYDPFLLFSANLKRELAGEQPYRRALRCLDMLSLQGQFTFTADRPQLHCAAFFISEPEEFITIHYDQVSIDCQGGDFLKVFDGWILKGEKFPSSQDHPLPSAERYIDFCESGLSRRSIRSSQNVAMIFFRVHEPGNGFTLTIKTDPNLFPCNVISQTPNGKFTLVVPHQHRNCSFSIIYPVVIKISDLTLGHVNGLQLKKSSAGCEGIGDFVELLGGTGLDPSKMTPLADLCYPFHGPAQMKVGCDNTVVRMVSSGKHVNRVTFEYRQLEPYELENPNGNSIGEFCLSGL
Put plainly: activators of CRF receptor 2 with binding protein – uHTS hits, confirmation (AID 602473). Format: functional. As to conditions: read-out: EC50_Mean.

Data set [11] in a line: cytotoxicity toward NIH3T3 fibroblasts, dose response, counter-screen, cell-based, ATP luminescence, mouse fibroblasts (AID 2010).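 Also: cells exposed to compound for about 90 hours before reading.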 Format: functional.
Data set [12] in a line: inhibitors of intracellular T. cruzi replication, confirmation, NIH3T3 host cells, beta-gal luminescence (AID 2044).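 Also: intracellular parasites grown in NIH/3T3 mouse fibroblasts as host cells; luminescent beta-galactosidase reporter signal from transgenic T. cruzi replicating inside host cells; inhibitors lower the luminescence signal.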 Format: functional, cell-based.
The target in data set [13] is Cytochrome P450 2D6 (Homo sapiens, UniProt P10635).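 Also: CYP2D6 member of a cytochrome P450 panel assay.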

Activity calls are given as the source filed them.

Cytochrome P450 2C9, sequence (P11712 whole entry): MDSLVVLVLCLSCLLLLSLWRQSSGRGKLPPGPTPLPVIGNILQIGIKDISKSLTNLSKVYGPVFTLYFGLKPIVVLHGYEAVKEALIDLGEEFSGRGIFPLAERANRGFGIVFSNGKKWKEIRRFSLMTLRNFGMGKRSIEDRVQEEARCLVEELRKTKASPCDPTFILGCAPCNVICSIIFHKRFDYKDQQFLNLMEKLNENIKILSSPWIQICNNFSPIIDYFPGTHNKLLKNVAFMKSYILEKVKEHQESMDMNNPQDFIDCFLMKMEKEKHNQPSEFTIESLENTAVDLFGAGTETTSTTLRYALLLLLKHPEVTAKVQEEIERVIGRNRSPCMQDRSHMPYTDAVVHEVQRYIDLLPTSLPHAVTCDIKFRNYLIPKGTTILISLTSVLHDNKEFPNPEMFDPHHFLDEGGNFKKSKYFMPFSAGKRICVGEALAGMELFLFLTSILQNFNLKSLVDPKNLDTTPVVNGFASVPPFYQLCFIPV
Cytochrome P450 2C19, sequence (P33261 whole entry): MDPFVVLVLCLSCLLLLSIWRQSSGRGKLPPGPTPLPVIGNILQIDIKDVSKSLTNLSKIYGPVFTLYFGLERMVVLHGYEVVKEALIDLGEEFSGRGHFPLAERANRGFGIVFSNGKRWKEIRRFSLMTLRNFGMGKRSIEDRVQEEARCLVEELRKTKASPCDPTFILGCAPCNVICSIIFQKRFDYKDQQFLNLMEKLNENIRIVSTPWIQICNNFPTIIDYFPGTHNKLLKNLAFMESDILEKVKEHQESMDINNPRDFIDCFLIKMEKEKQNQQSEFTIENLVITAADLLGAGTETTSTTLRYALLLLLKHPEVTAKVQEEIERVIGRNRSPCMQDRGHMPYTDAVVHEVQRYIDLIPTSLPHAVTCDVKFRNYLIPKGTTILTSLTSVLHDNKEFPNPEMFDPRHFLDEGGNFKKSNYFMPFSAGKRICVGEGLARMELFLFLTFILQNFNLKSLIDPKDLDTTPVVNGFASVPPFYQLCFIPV
G-protein coupled receptor 55, sequence (Q9Y2T6 whole entry): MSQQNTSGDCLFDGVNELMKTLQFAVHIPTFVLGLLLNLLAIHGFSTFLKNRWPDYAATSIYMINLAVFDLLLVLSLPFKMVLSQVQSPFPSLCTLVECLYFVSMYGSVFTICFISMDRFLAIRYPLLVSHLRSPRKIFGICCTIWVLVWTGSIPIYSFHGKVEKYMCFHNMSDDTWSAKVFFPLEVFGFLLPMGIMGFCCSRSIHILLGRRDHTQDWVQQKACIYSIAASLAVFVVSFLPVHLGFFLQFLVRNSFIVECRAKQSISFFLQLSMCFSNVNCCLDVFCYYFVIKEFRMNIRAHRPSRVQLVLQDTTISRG
Cytochrome P450 2D6, sequence (P10635 whole entry): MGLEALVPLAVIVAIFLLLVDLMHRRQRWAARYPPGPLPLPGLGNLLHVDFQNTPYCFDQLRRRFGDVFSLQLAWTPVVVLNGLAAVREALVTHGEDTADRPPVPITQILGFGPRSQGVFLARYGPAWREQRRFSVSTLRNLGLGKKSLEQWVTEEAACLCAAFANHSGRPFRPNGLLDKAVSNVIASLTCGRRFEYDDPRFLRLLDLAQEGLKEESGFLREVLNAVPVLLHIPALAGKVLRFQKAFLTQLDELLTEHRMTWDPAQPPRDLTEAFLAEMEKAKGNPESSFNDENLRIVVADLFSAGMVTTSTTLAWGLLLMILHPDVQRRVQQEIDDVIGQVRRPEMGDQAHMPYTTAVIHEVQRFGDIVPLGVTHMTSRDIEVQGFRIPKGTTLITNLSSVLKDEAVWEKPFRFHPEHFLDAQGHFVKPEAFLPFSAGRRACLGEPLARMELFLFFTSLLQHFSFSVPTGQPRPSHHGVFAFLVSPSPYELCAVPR

Regarding `COc1ccc(NC(=O)Nc2cccc3c2O[C@H](CN(C)S(=O)(=O)c2ccc(F)cc2)[C@@H](C)CN([C@H](C)CO)C3=O)cc1`, the AC50 in [1] was 20 µM (inactive). With `CN(C)c1ccc(-c2nc(N(C)Cc3ccco3)c3ccccc3n2)cc1`, the AC50 in data set [2] (read-out: AC50) was 20 µM (inconclusive); in data set [3], “inconclusive”. Regarding `CN(C)c1cc[n+](Cc2c(Cl)cccc2Cl)cc1`, the AC50 in data set [4] was 3.85 µM (active). Moreover, the IC50 in data set [5] is > 80 µM (inactive). As to `C[C@@H]1CN([C@H](C)CO)C(=O)Cc2cc(NS(=O)(=O)c3ccc(Cl)cc3)ccc2O[C@H]1CN(C)Cc1ccc(Oc2ccccc2)cc1`, the AC50 in data set [1] was 4.56 µM (active). As for `O=C(N[C@H]1CCC(=O)N([C@H](CSc2ccccc2)Cc2ccccc2)CC1)OCc1ccccc1`, the EC50 in data set [6] is 1.74 µM (active). In the case of `C[C@@H]1CN([C@H](C)CO)C(=O)Cc2cc(NC(=O)Cc3ccccc3)ccc2O[C@H]1CN(C)Cc1ccc(C(F)(F)F)cc1`, the AC50 in data set [1] is 5.77 µM (active). For the compound `C[C@@H]1CCCCO[C@H](CN(C)CC2CCCCC2)[C@@H](C)CN([C@H](C)CO)C(=O)c2cc(NC(=O)Nc3ccc4c(c3)OCO4)ccc2O1`, the AC50 in [1] is 1.96 µM (active). Same read-out and setting: the figure for `C[C@@H]1CN([C@@H](C)CO)C(=O)c2cccc(NC(=O)Nc3ccc(C(F)(F)F)cc3)c2O[C@H]1CN(C)Cc1ccc2c(c1)OCO2` is 1.34 µM (active). With `CCCC(=O)Nc1ccccc1NC(=O)CCC`, the IC50 in data set [7] is listed as > 50 µM (not active). Take `CCc1noc(C)c1C(=O)Nc1nc(-c2ccc(Cl)cc2Cl)cs1`: in data set [6], the EC50 was 3.56 µM (active). In the case of `C[C@@]1(O)CCOC(=O)C1`, the AC50 result in data set [2] and in data set [3] was “inconclusive” in each case. As to `Cc1ccc(S(=O)(=O)N(C)C[C@H]2OCCCC[C@@H](C)Oc3ccc(NS(=O)(=O)c4ccc(Cl)cc4)cc3C(=O)N([C@H](C)CO)C[C@@H]2C)cc1`, the AC50 in data set [1] was 3.91 µM (active). Turning to `COc1ccc(NS(=O)(=O)c2cc(NC(=O)c3cc(=O)c4ccccc4o3)ccc2OC)cc1`, the IC50 in data set [5] was > 80 µM (inactive). `Nc1ccccc1S(N)(=O)=O`: the AC50 entry in data set [3] was “inconclusive”. Turning to `CCOC(=O)c1c(C)c(C(=O)N2CCN(C(=O)c3ccco3)CC2)c(C)n1C`, the AC50 is 39.8 µM (inconclusive) in data set [8], 28.2 µM (inconclusive) in data set [2] (read-out: AC50) and “inconclusive” in data set [3]. With `CCN(CC)CCCNc1nc(CN2CCOCC2)nc2sc3c(c12)CCC3`, the AC50 in [9] is > 20 µM (inactive).

With `Cc1noc(C)c1CSc1nc2nncc-2c(O)n1-c1ccccc1`, the IC50 in data set [5] was > 80 µM (inactive). For `COC(=O)Nc1nc2ccc(C(=O)c3ccccc3)cc2[nH]1` [MEBENDAZOLE], the AC50 entry in data set [3] is reported as “inconclusive”.

On to `Cc1cccc(N2CCN(C(=O)CN3C(=O)C4CC=CCC4C3=O)CC2)c1C` (stereo not drawn), for which the IC50 in [7] is given as > 50 µM (not active).

For the compound `CC(C)CCN(C(=O)Nc1ccccc1)C(C)c1cccs1` (stereo not drawn), the IC50 in data set [7] is 20.3 µM (not active).

Take `CC(=O)c1c(C)[nH]c(C(=O)OCc2cccc(Cl)c2)c1C`: the half-maximal activity concentration (AC50) in data set [4] is 20 µM (active). For the same compound, in [7], the IC50 is given as 7.75 µM (not active).

Regarding `C/C(=N\NC(=S)NC1CCCCC1)c1ccc(OC(F)F)cc1OC(F)F`, in data set [7], the IC50 is 3.12 µM (not active). In the case of `CC(=C\c1ccccc1)/C=C1/SC(=O)N(CCCC(=O)Nc2ccc(C(=O)O)cc2)C1=O`, the IC50 in [5] was > 80 µM (inactive). Take `CCOc1ccc(/C=N/OCC(=O)NC(c2ccccc2)c2ccccc2)cc1`: the EC50 in data set [10] was > 53 µM (inactive). Moreover, the IC50 in [7] is given as 7.59 µM (not active). On to `CCN=C(S)N(CCc1c(C)[nH]c2ccc(Cl)cc12)Cc1ccco1`, for which the values for the EC50 in data set [11] and in data set [12] were > 60 µM (not active) and 2.81 µM (active), respectively. Moreover, the IC50 in data set [7] is on record as 9.05 µM (not active). Take `CCN(CC)CCCNc1nc(-n2nc(C)cc2C)nc2sc3c(c12)CC(C)(C)OC3`: the AC50 in [9] is > 20 µM (inactive). With `O=S(=O)(NCc1cc(-c2ccccc2Cl)no1)c1ccccc1`, the AC50 result in data set [3] was “inconclusive”; in [13] it was 39.8 µM (inconclusive). Take `COc1ccccc1CNC(=O)CCCn1c(=O)c2ccccc2n(CC(=O)NC2CCCC2)c1=O`: the AC50 entry in [3] was “inconclusive”.

Turning to `O=C(/C=C/c1ccco1)Nc1scc(-c2ccccc2)c1C(=O)O`, the AC50 in data set [9] was > 20 µM (inactive). Regarding `CC(=O)Nc1ccc(Sc2ccccc2C(=O)O)cn1`, in [9], the AC50 was 6.95 µM (active).

For the compound `COCCNc1ccnc(-c2ccccc2C(F)(F)F)n1`, the AC50 in [8] is 20 µM (inconclusive); in data set [3] it was “inconclusive”. Take `CCN(CC(=O)Nc1c(F)cccc1F)C(=O)c1cc([N+](=O)[O-])ccc1N1CCCCC1`: in data set [5], the IC50 was > 80 µM (inactive).

By AC50 is commonly meant the concentration giving half of the maximal activity seen. For orientation: IC50 means the concentration at which inhibition is half-maximal.
